The record followed here is patent US10040789B2, “1,3,4-thiadiazole compounds and their use in treating cancer” (AstraZeneca AB, priority 2015, dated 2018).

SMILES strings stand for the structures. Where two headings read alike, the source gives them in different places.

One assay has as its target GLS1 (Homo sapiens (Human), UniProt O94925). The assay can be described thus: GLS Enzyme Potency Assay (Glutamate Oxidase/AmplexRed coupled assay). The assay is classed as biochemical. The text has this: (§1) The following assays were used to measure the effects of the compounds described herein: a) GLS Enzyme Potency Assay; b) GLS Cell Potency Assay; c) GLS Cell Proliferation Assay. During the description of the assays, generally: • i. The following abbreviations have been used: CO2=Carbon dioxide; DMEM=Dulbecco's Modified Eagle Medium; DMSO=Dimethyl sulphoxide; EDTA=Ethylenediaminetetraacetic acid; EGTA=Ethylene glycol tetraacetic acid; FCS=Foetal calf serum; h=Hour(s); NBS=Non-binding surface; SDS=Sodium dodecyl sulphate; TRIS=Tris(Hydroxymethyl)aminomethane. • ii. IC50 values were calculated using a smart fitting model in Genedata.
Assay a): GLS Enzyme Potency Assay
A Glutamate Oxidase/AmplexRed coupled assay was used to measure the ability of compounds to bind to and inhibit the activity of GLS1 in vitro. […] GLS1 was diluted to 2×working concentration and incubated at room temperature to allow the tetrameric/dimeric forms to reach steady state. Assay measurements were performed in buffer comprising 50 mM TRIS pH 7.8, 100 mM NaPO4, pH 7.8, 0.001% v/v Tween20. […] DMSO concentration was maintained at 2% by back filling with DMSO solution. […] 3 μL of 100 mM glutamine diluted in assay buffer was then added and the reaction incubated at room temperature for 60 minutes. […] An artefact version of the assay where the 6His tagged GLS protein and glutamine were replaced with assay buffer was also used to rule out non specific effects on the assay components.

Assay [1] addresses cellular GLS activity in PC3 cells (Homo sapiens (Human), UniProt O94925). The assay can be described thus: GLS Cell Potency Assay (PC3 coupled assay measuring cellular glutamate depletion). Format: cell-based. The settings on record: PC3 cells, 6 h incubation, cellular glutamate depletion; read-out: Assay b) GLS cell MOA Mean IC50.
Source text: as §1
Assay b): GLS Cell Potency Assay
Compounds were assessed for their potential to inhibit cellular GLS activity by use of a PC3 coupled assay measuring cellular glutamate depletion. […] DMSO concentration was maintained at 0.3% by back filling with DMSO solution. PC3 cells were grown in phenol free DMEM, 10% dialyzed FCS, 2 mM glutamine and following dispersal by trypsinisation were plated at 5.6×10^3 cells per well in 40 μl of growth medium directly into the 384 well assay plates containing dispensed compound. After incubation for 6 h at 37° C., 5% CO2 growth media was aspirated and cells lysed in 15 μl of buffer containing 10 mM TRIS pH7.4, 100 mM NaCl, 1 mM EDTA, 1 mM EGTA, 1 mM NaF, 20 mM Na4P2O7, 2 mM Na3VO4, 1% Triton X-100, 10% glycerol, 0.1% SDS and 0.5% deoxycholate. 4 μl Of cell lysate was then transferred to a 384 well NBS plate (Corning product code 3575) and 35 μl of […] Amplex Red, 0.1375 U/mL Horseradish Peroxidase, 0.044 U/mL glutamate oxidase, 100 mM TRIS pH7.5 was added.

A further assay deals with NCI-H1703 cells. The assay can be described thus: GLS Cell Proliferation Assay (NCI-H1703 cell proliferation). The assay is classed as cell-based.
Source text: as §1
Assay c): GLS Cell Proliferation Assay
The ability of compounds to inhibit cell growth was measured using a 384 well plate NCI-H1703 cell proliferation assay. NCI-H1703 cells were grown in phenol red free RPMI1640, 10% FCS and 2 mM glutamine and seeded at a density of 750 cells per well in 40 μl of growth medium into clear-bottom 384 well assay plates (Corning product code 3712) and incubated for 24 h at 37° C., 5% CO2. Test compounds were prepared by dilution in 100% DMSO to give the correct dose range for 12 point concentration response and an appropriate volume (5-120 nl) dispensed directly into the assay plates containing plated cells. DMSO concentration was maintained at 0.3% by back filling with DMSO solution. Plates were incubated for 5 days at 37° C., 5% CO2, Sytox Green and Saponin added to final concentration of 2 μM and 0.25% respectively and incubated for 6 h prior to analysis. Plates were read on an Acumen eX3 (TTP Labtech) using 488 nm excitation and FITC filter set (500-530 nm) for emission. IC50 values were calculated by curve fitting to max inhibition of day zero growth using GeneData software analysis.

Setting [2] is: recombinant 6His tagged GLS protein (amino acids 63-669), 60 minutes reaction with glutamine.
Setting [3] is: Homo sapiens, 120 h; NCI-H1703 cells, 5 days incubation, Sytox Green; read-out: Assay c) Prolif Mean IC50.
The mark [4] stands for this setting: Homo sapiens, NCI-H1703, 120 h, NCI-H1703 cells, 5 days incubation, Sytox Green; read-out: Assay c) Prolif Mean IC50.

Sequence of cellular GLS activity in PC3 cells (O94925 55-669): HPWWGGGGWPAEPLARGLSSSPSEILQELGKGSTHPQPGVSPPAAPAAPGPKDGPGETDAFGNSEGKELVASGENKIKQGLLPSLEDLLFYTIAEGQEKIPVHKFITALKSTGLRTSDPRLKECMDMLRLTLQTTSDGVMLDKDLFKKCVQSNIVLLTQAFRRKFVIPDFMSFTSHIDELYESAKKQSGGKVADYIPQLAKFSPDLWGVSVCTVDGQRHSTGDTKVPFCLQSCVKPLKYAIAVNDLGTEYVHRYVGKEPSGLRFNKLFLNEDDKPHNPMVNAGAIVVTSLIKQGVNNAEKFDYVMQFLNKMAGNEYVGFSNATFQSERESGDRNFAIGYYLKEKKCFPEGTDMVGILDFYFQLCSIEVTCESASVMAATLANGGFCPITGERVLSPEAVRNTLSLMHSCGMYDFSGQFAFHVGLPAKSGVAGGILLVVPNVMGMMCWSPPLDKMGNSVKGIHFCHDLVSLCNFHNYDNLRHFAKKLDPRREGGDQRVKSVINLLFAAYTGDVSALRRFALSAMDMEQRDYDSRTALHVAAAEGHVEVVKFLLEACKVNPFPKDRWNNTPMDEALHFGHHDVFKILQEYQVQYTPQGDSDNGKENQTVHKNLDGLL
Sequence of GLS1 (O94925 63-669): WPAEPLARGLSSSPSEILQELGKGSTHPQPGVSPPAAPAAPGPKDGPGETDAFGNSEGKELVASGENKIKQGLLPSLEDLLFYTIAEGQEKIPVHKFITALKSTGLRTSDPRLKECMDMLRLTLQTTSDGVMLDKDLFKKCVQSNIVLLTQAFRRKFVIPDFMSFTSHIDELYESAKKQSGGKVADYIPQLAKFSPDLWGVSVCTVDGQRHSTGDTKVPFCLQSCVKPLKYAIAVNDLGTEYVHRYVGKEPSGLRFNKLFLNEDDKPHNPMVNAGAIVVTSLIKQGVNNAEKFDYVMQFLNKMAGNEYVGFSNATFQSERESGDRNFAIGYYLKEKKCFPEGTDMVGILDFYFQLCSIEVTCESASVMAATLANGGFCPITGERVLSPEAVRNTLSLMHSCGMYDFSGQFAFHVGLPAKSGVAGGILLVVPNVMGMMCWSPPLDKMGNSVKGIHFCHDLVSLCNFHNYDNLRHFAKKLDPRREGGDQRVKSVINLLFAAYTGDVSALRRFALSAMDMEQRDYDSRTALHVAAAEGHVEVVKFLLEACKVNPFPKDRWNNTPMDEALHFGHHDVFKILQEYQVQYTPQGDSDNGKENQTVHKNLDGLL

Turning to `O=C(Nc1nnc(N[C@@H]2CCN(c3ccc(F)nn3)C2)s1)[C@H](c1cccc(OC(F)(F)F)c1)N1CCC1` [Example 12(a), (2S)-2-(azetidin-1-yl)-N-[5-[[(3R)-1-(6-fluoropyridazin-3-yl)pyrrolidin-3-yl]amino]-1,3,4-thiadiazol-2-yl]-2-[3-(trifluoromethoxy)phenyl]acetamide], the values for the IC50 (on GLS1 (setting [2]); in assay [1]; in the assay with NCI-H1703 cells (setting [3])) were 2510 nM, 15.3 nM and 11.6 nM, respectively.

Regarding `CN(C)[C@H](C(=O)Nc1nnc(N[C@@H]2CCN(c3cccnn3)C2)s1)c1ccc(F)cc1` [Example 2(a), (2S)-2-(dimethylamino)-2-(4-fluorophenyl)-N-[5-[[(3R)-1-pyridazin-3-ylpyrrolidin-3-yl]amino]-1,3,4-thiadiazol-2-yl]acetamide], the IC50 in the assay with NCI-H1703 cells (setting [3]) was found to be 89.6 nM.

In the case of `O=C(Nc1nnc(N[C@@H]2CCN(c3cccnn3)C2)s1)[C@@H](c1cccc(OC(F)(F)F)c1)N1CCC1` [Example 7(b), (2R)-2-(azetidin-1-yl)-N-[5-[[(3R)-1-pyridazin-3-ylpyrrolidin-3-yl]amino]-1,3,4-thiadiazol-2-yl]-2-[3-(trifluoromethoxy)phenyl]acetamide], the concentration for half-maximal inhibition (IC50) against GLS1 was 102 nM; in assay [1], 0.985 nM; in the assay on NCI-H1703 cells (setting [3]), 2.45 nM.

For the compound `CN(C)[C@@H](C(=O)Nc1nnc(N[C@@H]2CCN(c3cccnn3)C2)s1)c1cccc(OC(F)(F)F)c1` (single isomer, unassigned) [Example 4(b)], the figures for the IC50 (against GLS1; in assay [1]; in the assay with NCI-H1703 cells (setting [4])) were 522 nM, 1.91 nM and 2.52 nM, respectively.

Turning to `CN(C)[C@H](C(=O)Nc1nnc(N[C@@H]2CCN(c3cccnn3)C2)s1)c1cccc(OC(F)(F)F)c1` [Example 4(a), (2S)-2-(dimethylamino)-N-[5-[[(3R)-1-pyridazin-3-ylpyrrolidin-3-yl]amino]-1,3,4-thiadiazol-2-yl]-2-[3-(trifluoromethoxy)phenyl]acetamide], the IC50 on GLS1 (setting [2]) was 56.4 nM; in assay [1] it was 0.405 nM; with NCI-H1703 cells (NCI-H1703 cells, 5 days incubation, Sytox Green; read-out: Assay c) Prolif Mean IC50), 8.41 nM.

On to `COc1ccc([C@H](C(=O)Nc2nnc(N[C@@H]3CCN(c4cccnn4)C3)s2)N(C)C)cc1` [Example 15, (2R)-2-(dimethylamino)-2-(4-methoxyphenyl)-N-[5-[[(3R)-1-pyridazin-3-ylpyrrolidin-3-yl]amino]-1,3,4-thiadiazol-2-yl]acetamide], for which the IC50 at GLS1 (setting [2]) was found to be 3750 nM; in assay [1] it was 22.2 nM; in the assay with NCI-H1703 cells (setting [4]) it was 152 nM.

Turning to `COc1ccc([C@@H](C(=O)Nc2nnc(N[C@@H]3CCN(c4cccnn4)C3)s2)N(C)C)cc1` [Example 16, (2S)-2-(dimethylamino)-2-(4-methoxyphenyl)-N-[5-[[(3R)-1-pyridazin-3-ylpyrrolidin-3-yl]amino]-1,3,4-thiadiazol-2-yl]acetamide], the IC50 was found to be 198 nM on GLS1 (setting [2]), 4.76 nM in assay [1] and 131 nM with NCI-H1703 cells (setting [4]).

`O=C(Nc1nnc(N[C@@H]2CCN(c3cccnn3)C2)s1)[C@H](c1ccc(F)c(OC(F)(F)F)c1)N1CCC1` [Example 11(a), (2S)-2-(Azetidin-1-yl)-2-[4-fluoro-3-(trifluoromethoxy)phenyl]-N-[5-[[(3R)-1-pyridazin-3-ylpyrrolidin-3-yl]amino]-1,3,4-thiadiazol-2-yl]acetamide]: the IC50 on GLS1 (setting [2]) was 952 nM; in assay [1], 30.8 nM; in the assay with NCI-H1703 cells (setting [4]), 19.1 nM.

Turning to `COc1cccc([C@@H](C(=O)Nc2nnc(N[C@@H]3CCN(c4cccnn4)C3)s2)N2CCC2)c1` [Example 6(a), (2S)-2-(azetidin-1-yl)-2-(3-methoxyphenyl)-N-[5-[[(3R)-1-pyridazin-3-ylpyrrolidin-3-yl]amino]-1,3,4-thiadiazol-2-yl]acetamide], the IC50 on GLS1 (setting [2]) was 981 nM; in assay [1], 22 nM; in the assay with NCI-H1703 cells (setting [4]), 29.3 nM.

Consider `COc1cccc([C@H](C(=O)Nc2nnc(N[C@@H]3CCN(c4cccnn4)C3)s2)N2CCC2)c1` (single isomer, unassigned) [Example 6(b)], for which the figures for the IC50 (at GLS1; in assay [1]; with NCI-H1703 cells (setting [4])) were 944 nM, 29.7 nM and 80.8 nM, respectively.

As for `Cc1cccc([C@@H](C(=O)Nc2nnc(N[C@@H]3CCN(c4cccnn4)C3)s2)N(C)C)c1` [Example 10, (2S)-2-(dimethylamino)-2-(3-methylphenyl)-N-[5-[[(3R)-1-pyridazin-3-ylpyrrolidin-3-yl]amino]-1,3,4-thiadiazol-2-yl]acetamide], the 50% inhibitory concentration (IC50) on GLS1 (setting [2]) is 59.2 nM; in assay [1] it was 2.12 nM; with NCI-H1703 cells (setting [3]) it was 21.2 nM.

As for `O=C(Nc1nnc(N[C@@H]2CCN(c3cccnn3)C2)s1)[C@H](c1cccc(OC(F)(F)F)c1)N1CCC1` [Example 7(a), (2S)-2-(azetidin-1-yl)-N-[5-[[(3R)-1-pyridazin-3-ylpyrrolidin-3-yl]amino]-1,3,4-thiadiazol-2-yl]-2-[3-(trifluoromethoxy)phenyl]acetamide], the IC50 is 1330 nM on GLS1 (setting [2]), 8.61 nM in assay [1] and 6.24 nM in the assay on NCI-H1703 cells (setting [3]).

Turning to `O=C(Nc1nnc(N[C@@H]2CCN(c3ccc(F)nn3)C2)s1)[C@@H](c1cccc(OC(F)(F)F)c1)N1CCC1` [Example 12(b), (2R)-2-(azetidin-1-yl)-N-[5-[[(3R)-1-(6-fluoropyridazin-3-yl)pyrrolidin-3-yl]amino]-1,3,4-thiadiazol-2-yl]-2-[3-(trifluoromethoxy)phenyl]acetamide], the values for the 50% inhibitory concentration (IC50) (against GLS1; in assay [1]; in the assay on NCI-H1703 cells (setting [3])) were 246 nM, 1.41 nM and 12.9 nM, respectively.

In the case of `O=C(Nc1nnc(N[C@@H]2CCN(c3cccnn3)C2)s1)[C@@H](c1ccc(F)c(OC(F)(F)F)c1)N1CCC1` (single isomer, unassigned) [Example 11(b)], the concentration for half-maximal inhibition (IC50) at GLS1 was determined as 132 nM; in assay [1], 1.77 nM; in the assay with NCI-H1703 cells (setting [4]) it was 30.1 nM.

On to `CN(C)[C@@H](C(=O)Nc1nnc(N[C@@H]2CCN(c3cccnn3)C2)s1)c1ccc(F)cc1` (single isomer, unassigned) [Example 2(b)], for which, in the assay on NCI-H1703 cells (setting [3]), the IC50 is 97.9 nM.

Consider `CN(C)[C@@H](C(=O)Nc1nnc(N[C@@H]2CCN(c3cccnn3)C2)s1)c1ccccc1` (single isomer, unassigned) [Example 1(b)], for which, in the assay with NCI-H1703 cells (setting [3]), the half-maximal inhibitory concentration (IC50) worked out at 54.7 nM.

As to `O=C(Nc1nnc(N[C@@H]2CCN(c3cccnn3)C2)s1)[C@H](c1cccc(OC(F)F)c1)N1CCC1` [Example 5(a), (2S)-2-(azetidin-1-yl)-2-[3-(difluoromethoxy)phenyl]-N-[5-[[(3R)-1-pyridazin-3-ylpyrrolidin-3-yl]amino]-1,3,4-thiadiazol-2-yl]acetamide], in the assay on NCI-H1703 cells (setting [3]), the half-maximal inhibitory concentration (IC50) was found to be 29.3 nM.

For `O=C(Nc1nnc(N[C@@H]2CCN(c3cccnn3)C2)s1)[C@@H](c1cccc(OC(F)F)c1)N1CCC1` (single isomer, unassigned) [Example 5(b)], the IC50 with NCI-H1703 cells (setting [3]) was found to be 13.2 nM.

As to `CN(C)[C@H](C(=O)Nc1nnc(N[C@@H]2CCN(c3cccnn3)C2)s1)c1ccccc1` [Example 1(a), (2S)-2-(Dimethylamino)-2-phenyl-N-[5-[[(3R)-1-pyridazin-3-ylpyrrolidin-3-yl]amino]-1,3,4-thiadiazol-2-yl]acetamide], the IC50 in the assay on NCI-H1703 cells (setting [3]) was determined as 68.6 nM.

As a reminder, the IC50 is the concentration needed to halve the response being measured.
